Laboratory results from article PMC7614749 (Chemistry (Weinheim an der Bergstrasse, Germany), 2023).

Target: T1, transketolase (TK) (Zea mays, UniProt Q7SIC9)
T1 sequence (Q7SIC9 1-675): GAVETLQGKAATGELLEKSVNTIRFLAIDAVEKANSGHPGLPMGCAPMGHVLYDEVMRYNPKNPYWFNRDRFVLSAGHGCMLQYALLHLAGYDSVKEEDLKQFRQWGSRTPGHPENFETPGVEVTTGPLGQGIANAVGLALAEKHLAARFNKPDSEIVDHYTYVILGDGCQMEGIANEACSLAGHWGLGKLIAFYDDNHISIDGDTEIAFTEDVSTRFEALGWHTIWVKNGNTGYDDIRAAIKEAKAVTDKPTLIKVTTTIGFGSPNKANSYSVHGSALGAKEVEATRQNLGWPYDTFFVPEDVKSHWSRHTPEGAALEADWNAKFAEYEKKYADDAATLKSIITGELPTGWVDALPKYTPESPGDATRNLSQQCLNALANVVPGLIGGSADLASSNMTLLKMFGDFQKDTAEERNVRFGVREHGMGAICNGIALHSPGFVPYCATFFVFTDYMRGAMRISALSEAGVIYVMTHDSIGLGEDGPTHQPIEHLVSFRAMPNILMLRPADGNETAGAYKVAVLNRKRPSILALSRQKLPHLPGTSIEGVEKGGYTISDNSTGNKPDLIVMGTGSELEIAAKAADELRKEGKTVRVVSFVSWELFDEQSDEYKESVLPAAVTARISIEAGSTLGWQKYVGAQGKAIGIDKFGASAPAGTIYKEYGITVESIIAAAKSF
Test: in vitro dose-response enzymatic activity assay
Assay type: biochemical
Conditions: read-out: enzymatic assay / IC50

`C/C=C1/CC2=C(C(=O)OC2=O)[C@H](CCC)[C@H](O)C(=O)C[C@@H]1O` [compound 6, cornexistin] showed an IC50 of 50 ± 5 µM.
